≈ marks a conversion by molar mass, not a printed value. Like-named read-outs stand apart in the source and are kept apart here. Non-standard residues stand in square brackets, D forms with d. Residues, ends and D or L forms follow the SMILES beside them. *: point of attachment. Oic = O=C(O)[C@@H]1C[C@@H]2CCCC[C@@H]2N1; Pent4ynoyl = C#CCCC(=O)*
What was measured:
[1] = tested on: Listeria monocytogenes LMG 10470
Description: (§1) All samples were resuspended in 0.05% aqueous acetic acid solution and the peptide amount was quantified by HPLC according to Schmitt et al. ([Schmitt et al., 2019]). The indicator strains MW2-MRSA, Enterococcus faecium, Listeria monocytogenes, and Lactococcus lactis were first streaked on GM17 plate and cultured overnight. The peptide samples were diluted with 0.05% acetic acid to a concentration of 40–320 μM (depending on the estimated activity of the peptide and the strain tested). The MIC value test was performed according to [Wiegand et al. (2008)].
(§2) M. flavus was used as the indicator strain for the agar well diffusion assay, and 0.15 nmol of each sample was added to each well (Figure 3). […] Antimicrobial activity of all compounds was tested by growth inhibition assays against two clinically relevant Gram-positive pathogens, i.e., methicillin resistant S. aureus and vancomycin resistant E. faecium, as well as L. monocytogenes, and L. lactis. […] For this experiment, an activity test was performed against the NSR producing strain L. lactis NZ9000 (pNSR).

[2] = tested on: MW2-MRSA (Staphylococcus aureus MW2, methicillin resistant)
Description: as §1, §2

[3] = tested on: L. lactis NZ9000 (pEmpty); conditions: for MIC value, L. lactis NZ9000 (pEmpty): broth microdilution (Wiegand et al. 2008), samples in 0.05% acetic acid, strain with empty plasmid
Description: as §1, §2

L. lactis NZ9000 (pNSR) = conditions: for MIC against NZ9000 with vs without NSR production: L. lactis NZ9000 (pNSR) vs NZ9000 (pEmpty); for MIC value, L. lactis NZ9000 (pNSR): broth microdilution (Wiegand et al. 2008), strain expressing nisin resistance protein NSR
Description: as §1, §2

[4] = tested on: Enterococcus faecium LMG 16003 (vancomycin resistant, VRE)
Description: as §1, §2

Micrococcus flavus = conditions: M. flavus; 0.15 nmol per well; 30°C overnight
Description: Agar well diffusion assay against Micrococcus flavus was performed as described previously ([van Heel et al., 2013]). 0.15 nmol of each sample was added to each well. The agar plate was incubated at 30°C overnight, after which the zone of inhibition was measured.
as §2

[5] = broth microdilution (Wiegand et al. 2008), samples in 0.05% acetic acid, quantified by HPLC
[6] = ratio of MICs vs nisin ABC + O6
[7] = MW2- ( MW2, methicillin resistant)

| SMILES | MIC value, L. lactis NZ9000 (pEmpty) [3] | MIC value, L. monocytogenes ([1]; LMG 10470) | MIC value, MW2-MRSA [2, 7] | MIC value, E. faecium ([4]; LMG 16003) | Antimicrobial activity (zone of inhibition) in agar well diffusion assay (Micrococcus flavus) | other results |
| --- | --- | --- | --- | --- | --- | --- |
| C=C1NC(=O)[C@H]([C@@H](C)CC)NC(=O)[C@H](NC(=O)/C(=C/C)NC(=O)[C@@H](N)[C@@H](C)CC)CSC[C@@H](C(=O)N[C@H]2C(=O)N3CCC[C@H]3C(=O)NCC(=O)N[C@H](C(=O)N[C@@H](CCCCN)C(=O)N[C@H]3C(=O)NCC(=O)N[C@@H](C)C(=O)N[C@@H](CC(C)C)C(=O)N[C@@H](CCSC)C(=O)NCC(=O)N[C@H](C(=O)N[C@@H](CC(N)=O)C(=O)NCCCn4cc(CCC(=O)N5[C@H](C(=O)N6[C@H](C(=O)N7[C@H](C(=O)N8[C@H](C(=O)N9[C@H](C(=O)N%10[C@H](C(=O)N[C@@H](CCCCN)C(=O)N[C@@H](CCCCN)C(=O)N[C@@H](CCCCN)C(=O)O)C[C@@H]%11CCCC[C@@H]%11%10)C[C@@H]%10CCCC[C@@H]%109)C[C@@H]9CCCC[C@@H]98)C[C@@H]8CCCC[C@@H]87)C[C@@H]7CCCC[C@@H]76)C[C@@H]6CCCC[C@@H]65)nn4)CS[C@H]3C)CS[C@H]2C)NC(=O)[C@H](CC(C)C)NC1=O [Nisin ABC + O6K3] | 2.5 μM | – | – | – | – | MIC value, L. monocytogenes [1, 5]: 10 µM; Decrease of antimicrobial activity compared to full nisin, L. monocytogenes ([1]; ratio of MICs vs nisin): 4 fold; Increase of antimicrobial activity compared to nisin ABC, L. monocytogenes ([1]; ratio of MICs vs nisin ABC): 4 fold; Increase of antimicrobial activity compared to nisin ABC + O6, L. monocytogenes [1, 6]: twice; MIC value, MW2-MRSA [2, 5]: 80 µM; Increase of antimicrobial activity compared to nisin ABC, L. lactis ([3]; ratio of MICs vs nisin ABC): 2 fold; Increase of antimicrobial activity compared to nisin ABC + O6, L. lactis [3, 6]: twice; MIC against NZ9000 with vs without NSR production (L. lactis NZ9000 (pNSR)): identical MICs; MIC value, L. lactis NZ9000 (pNSR) (L. lactis NZ9000 (pNSR)): 2.5 μM; MIC value, E. faecium [4, 5]: 2.5 µM; Decrease of antimicrobial activity compared to full nisin, E. faecium ([4]; ratio of MICs vs nisin): 8 fold; Increase of antimicrobial activity compared to nisin ABC, E. faecium ([4]; ratio of MICs vs nisin ABC): 16 fold; Increase of antimicrobial activity compared to nisin ABC + O6, E. faecium [4, 6]: twice |
| C=C1NC(=O)[C@H]([C@@H](C)CC)NC(=O)[C@H](NC(=O)/C(=C/C)NC(=O)[C@@H](N)[C@@H](C)CC)CSC[C@@H](C(=O)N[C@H]2C(=O)N3CCC[C@H]3C(=O)NCC(=O)N[C@H](C(=O)N[C@@H](CCCCN)C(=O)N[C@H]3C(=O)NCC(=O)N[C@@H](C)C(=O)N[C@@H](CC(C)C)C(=O)N[C@@H](CCSC)C(=O)NCC(=O)N[C@H](C(=O)N[C@@H](CC(N)=O)C(=O)NCCCn4cc(CCC(=O)N5[C@H](C(=O)N6[C@H](C(=O)N7[C@H](C(=O)N8[C@H](C(=O)N9[C@H](C(=O)N%10[C@H](C(=O)O)C[C@@H]%11CCCC[C@@H]%11%10)C[C@@H]%10CCCC[C@@H]%109)C[C@@H]9CCCC[C@@H]98)C[C@@H]8CCCC[C@@H]87)C[C@@H]7CCCC[C@@H]76)C[C@@H]6CCCC[C@@H]65)nn4)CS[C@H]3C)CS[C@H]2C)NC(=O)[C@H](CC(C)C)NC1=O [Nisin ABC + O6] | 5.0 μM | 20 µM | 80 µM | 5 µM | – | MIC against NZ9000 with vs without NSR production (L. lactis NZ9000 (pNSR)): identical MICs; MIC value, L. lactis NZ9000 (pNSR) (L. lactis NZ9000 (pNSR)): 5.0 μM |
| C=C1NC(=O)[C@H]([C@@H](C)CC)NC(=O)[C@H](NC(=O)/C(=C/C)NC(=O)[C@@H](N)[C@@H](C)CC)CSC[C@@H](C(=O)N[C@H]2C(=O)N3CCC[C@H]3C(=O)NCC(=O)N[C@H](C(=O)N[C@@H](CCCCN)C(=O)N[C@H]3C(=O)NCC(=O)N[C@@H](C)C(=O)N[C@@H](CC(C)C)C(=O)N[C@@H](CCSC)C(=O)NCC(=O)N[C@H](C(=O)N[C@@H](CC(N)=O)C(=O)NCCCn4cc(CCC(=O)N5[C@H](C(=O)N6[C@H](C(=O)N7[C@H](C(=O)N[C@@H](CCCCN)C(=O)N[C@@H](CCCCN)C(=O)N[C@@H](CCCCN)C(=O)O)C[C@@H]8CCCC[C@@H]87)C[C@@H]7CCCC[C@@H]76)C[C@@H]6CCCC[C@@H]65)nn4)CS[C@H]3C)CS[C@H]2C)NC(=O)[C@H](CC(C)C)NC1=O [Nisin ABC + O3K3] | 2.5 μM | 80 µM | 80 µM | 40 µM | considerably higher than that of nisin ABC | – |
| C=C1NC(=O)[C@H]([C@@H](C)CC)NC(=O)[C@H](NC(=O)/C(=C/C)NC(=O)[C@@H](N)[C@@H](C)CC)CSC[C@@H](C(=O)N[C@H]2C(=O)N3CCC[C@H]3C(=O)NCC(=O)N[C@H](C(=O)N[C@@H](CCCCN)C(=O)O)CS[C@H]2C)NC(=O)[C@H](CC(C)C)NC1=O [Nisin AB, reference compound] | >40 μM | >320 µM | >320 µM | 160 µM (≈ 184 µg/mL) | not active alone | – |
| C=C1NC(=O)[C@H]([C@@H](C)CC)NC(=O)[C@H](NC(=O)/C(=C/C)NC(=O)[C@@H](N)[C@@H](C)CC)CSC[C@@H](C(=O)N[C@H]2C(=O)N3CCC[C@H]3C(=O)NCC(=O)N[C@H](C(=O)N[C@@H](CCCCN)C(=O)NCCCn3cc(CCC(=O)N4[C@H](C(=O)N5[C@H](C(=O)N6[C@H](C(=O)N7[C@H](C(=O)N8[C@H](C(=O)N9[C@H](C(=O)N[C@@H](CCCCN)C(=O)N[C@@H](CCCCN)C(=O)N[C@@H](CCCCN)C(=O)O)C[C@@H]%10CCCC[C@@H]%109)C[C@@H]9CCCC[C@@H]98)C[C@@H]8CCCC[C@@H]87)C[C@@H]7CCCC[C@@H]76)C[C@@H]6CCCC[C@@H]65)C[C@@H]5CCCC[C@@H]54)nn3)CS[C@H]2C)NC(=O)[C@H](CC(C)C)NC1=O [Nisin AB + O6K3] | 10 μM | – | – | – | the only active one | – |
| C#CCCC(=O)N1[C@H](C(=O)N2[C@H](C(=O)N3[C@H](C(=O)N[C@@H](CCCCN)C(=O)N[C@@H](CCCCN)C(=O)N[C@@H](CCCCN)C(=O)O)C[C@@H]4CCCC[C@@H]43)C[C@@H]3CCCC[C@@H]32)C[C@@H]2CCCC[C@@H]21 [O3K3] (Pent4ynoyl-[Oic][Oic][Oic]KKK-OH) | >160 μM | >160 µM | >160 µM | >160 µM | – | – |
| C=C1NC(=O)[C@H]([C@@H](C)CC)NC(=O)[C@H](NC(=O)/C(=C/C)NC(=O)[C@@H](N)[C@@H](C)CC)CSC[C@@H](C(=O)N[C@H]2C(=O)N3CCC[C@H]3C(=O)NCC(=O)N[C@H](C(=O)N[C@@H](CCCCN)C(=O)N[C@H]3C(=O)NCC(=O)N[C@@H](C)C(=O)N[C@@H](CC(C)C)C(=O)N[C@@H](CCSC)C(=O)NCC(=O)N[C@H](C(=O)N[C@@H](CC(N)=O)C(=O)O)CS[C@H]3C)CS[C@H]2C)NC(=O)[C@H](CC(C)C)NC1=O [Nisin ABC, reference compound] | 5.0 μM | 40 µM (≈ 75.2 µg/mL) | 40 µM (≈ 75.2 µg/mL) | 40 µM (≈ 75.2 µg/mL) | – | – |
